# Test results taken from PMC9502870.
# Test: Intramolecular Nicholas reaction: C-O or C-N bond formation between OH/NHR nucleophile and Co2(CO)6-stabilised propargyl cation (from propargylic OMe), BF3·Et2O 1.3-8 equiv, 0 °C to rt
# Details: the molecule shown is the open-chain precursor, 10-membered ring, DCM, 1.0 mM, 25.0 °C
structure (smiles),measurement,setting,value
COCC#Cc1sc2ccccc2c1C#CCC(O)CC(=O)OC (stereo not shown) [4 -> 5],"ring closure, isolated yield",1.0 h,51%
COCC#Cc1sc2ccccc2c1C#CCCNS(=O)(=O)c1ccccc1[N+](=O)[O-] [12a -> 13a],"ring closure, isolated yield",1.0 h,46%
"COCC#Cc1sc2ccccc2c1C#CCCNS(=O)(=O)c1ccc(N)cc1 [12b (free NH2, no cyclization)]","ring closure, isolated yield",,0%
C#CCCCC(=O)Nc1ccc(S(=O)(=O)NCCC#Cc2c(C#CCOC)sc3ccccc23)cc1 [12c -> 13b],"ring closure, isolated yield",1.0 h,63%
COCC#Cc1sc2ccccc2c1C#CCCNCc1ccccc1 [17a -> 18 (BF3·Et2O)],"ring closure, isolated yield",20.0 h,4%
COCC#Cc1sc2ccccc2c1C#CCCNC(=O)c1ccccc1 [17b (no macrocycle; pyrroline 19 formed)],"ring closure, isolated yield",2.0 h,0%
COCC#Cc1sc2ccccc2c1C#CCCNS(=O)(=O)c1ccc(C)cc1 [NHTs Co-complex -> 13c (ref 42)],"ring closure, isolated yield",,76%
